# From ChEMBL document CHEMBL1201862, “PubChem BioAssay data set” (2004)
# The source made the active and inactive calls.
# Columns and labels:
# [1] = viability of PTEN-deleted HCT116 cells – cell-based, HCT116 PTEN knockout, dose response (AID 1047); format: functional;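 also: HCT116 colon tumor cells with PTEN knocked out; cells exposed to compound for 60 hours before readout; potency for loss of cell viability measured by luminescence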
# [2] = viability of HCT116 lacking mutant beta-catenin – cell-based, human colon tumor, dose response (AID 1045); format: functional;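 also: HCT116 colon tumor cells with beta catenin knocked out; cells exposed to compound for 60 hours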
# [3] = target: T1, Short transient receptor potential channel 4 (Mus musculus, UniProt Q9QUQ5); test: calcium entry via TRPC4 opening agents – cell-based, HEK293 TRPC4/mu-opioid, Fluo-4 calcium, dose response (AID 434937); format: functional
# T1 sequence (Q9QUQ5 whole entry): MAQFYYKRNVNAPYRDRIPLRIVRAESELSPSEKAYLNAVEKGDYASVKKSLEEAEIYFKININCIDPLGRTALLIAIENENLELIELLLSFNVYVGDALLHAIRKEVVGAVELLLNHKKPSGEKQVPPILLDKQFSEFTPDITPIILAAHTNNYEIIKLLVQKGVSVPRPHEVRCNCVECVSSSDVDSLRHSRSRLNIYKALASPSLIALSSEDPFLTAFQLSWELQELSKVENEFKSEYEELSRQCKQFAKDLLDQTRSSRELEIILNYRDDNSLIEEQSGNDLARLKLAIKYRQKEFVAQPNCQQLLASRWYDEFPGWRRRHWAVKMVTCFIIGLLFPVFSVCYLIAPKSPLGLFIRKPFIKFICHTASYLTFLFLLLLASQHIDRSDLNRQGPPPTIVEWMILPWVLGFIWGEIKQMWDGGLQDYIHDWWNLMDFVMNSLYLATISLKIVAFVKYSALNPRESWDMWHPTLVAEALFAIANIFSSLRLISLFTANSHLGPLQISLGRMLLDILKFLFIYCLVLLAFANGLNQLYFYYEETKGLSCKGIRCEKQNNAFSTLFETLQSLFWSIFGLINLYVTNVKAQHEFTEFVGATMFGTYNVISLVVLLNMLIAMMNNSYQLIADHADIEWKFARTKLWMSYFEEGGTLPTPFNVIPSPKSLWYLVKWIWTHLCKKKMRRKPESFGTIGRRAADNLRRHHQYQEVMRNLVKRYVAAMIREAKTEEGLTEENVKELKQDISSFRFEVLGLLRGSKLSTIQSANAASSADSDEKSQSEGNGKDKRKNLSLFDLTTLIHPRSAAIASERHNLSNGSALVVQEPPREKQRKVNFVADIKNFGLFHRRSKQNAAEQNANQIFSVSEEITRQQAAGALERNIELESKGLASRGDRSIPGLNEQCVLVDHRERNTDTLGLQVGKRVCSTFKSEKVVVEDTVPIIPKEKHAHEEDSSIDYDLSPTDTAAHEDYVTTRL
# P388 = test: cells; format: functional; conditions: Mus musculus
# SN12K1 = test: cells; format: functional; conditions: Homo sapiens
# P388/ADR = test: cells; format: functional; conditions: Mus musculus
# [4] = HIV-1 AD8 envelope cell-cell fusion blockers – cherry-pick, dose response (AID 652062); format: functional, cell-based;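 also: luciferase signal from cell-cell fusion driven by HIV-1 clade B AD8 Env; potency is for inhibitors of fusion seen as a drop in luminescence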
# [5] = blockers of HIV-1 envelope-mediated cell-cell fusion – cherry-pick, dose response (AID 652057); format: functional, cell-based
# [6] = P. falciparum Dd2 growth inhibitors, dose response, SYBR Green, cherry-picked samples (AID 1159567); format: functional, cell-based
# [7] = toxicity to human hepatoma HepG2 cells – cell-based, cherry-picked samples, cytotoxicity control, dose response (AID 1159577); format: functional
# H4 = test: Luminescence Cell-Based Dose Response HTS to Identify Activators of 5'UTR Stem-Loop Driven Prion Protein mRNA Translation in H4 Neuroglioblastoma Cells. [Related pubchem assays: 1829 (Project Summary), 1814 (Primary HTS)]; format: functional; conditions: Homo sapiens
# [8] = Luminescence Cell-Based Dose Response HTS to Identify Activators of Luciferase Translation or Activity in H4 […] Cells. [Related pubchem assays: 1829 (Project Summary), 1814 (Primary HTS)]; format: functional
# [9] = Luminescence Cell-Based Dose Confirmation HTS to Identify Activators of 5'UTR Stem-Loop Driven Alpha-Synuclein mRNA Translation in H4 Neuroglioblastoma Cells. [Related pubchem assays: 1829 (Project Summary), 1814 (Primary HTS)]; format: functional
# HeLa = test: ATP-based viability loss in HeLa cells – cell-based, CellTiter-Glo luminescence, cherry-pick samples, cytotoxicity control for MITF activator project, dose response (AID 540259); format: functional; conditions: Homo sapiens
# [10] = target: T2, Microphthalmia-associated transcription factor (Homo sapiens, UniProt O75030); test: reducers of TRPM1 reporter luminescence, concentration series – cell-based, SK-MEL-5, cherry-picked, set 3, MITF inhibitor project, dose response (AID 493073); format: functional;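 also: SK-MEL-5 melanoma cells with luciferase driven by the MITF target TRPM1 promoter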
# T2 sequence (O75030 whole entry): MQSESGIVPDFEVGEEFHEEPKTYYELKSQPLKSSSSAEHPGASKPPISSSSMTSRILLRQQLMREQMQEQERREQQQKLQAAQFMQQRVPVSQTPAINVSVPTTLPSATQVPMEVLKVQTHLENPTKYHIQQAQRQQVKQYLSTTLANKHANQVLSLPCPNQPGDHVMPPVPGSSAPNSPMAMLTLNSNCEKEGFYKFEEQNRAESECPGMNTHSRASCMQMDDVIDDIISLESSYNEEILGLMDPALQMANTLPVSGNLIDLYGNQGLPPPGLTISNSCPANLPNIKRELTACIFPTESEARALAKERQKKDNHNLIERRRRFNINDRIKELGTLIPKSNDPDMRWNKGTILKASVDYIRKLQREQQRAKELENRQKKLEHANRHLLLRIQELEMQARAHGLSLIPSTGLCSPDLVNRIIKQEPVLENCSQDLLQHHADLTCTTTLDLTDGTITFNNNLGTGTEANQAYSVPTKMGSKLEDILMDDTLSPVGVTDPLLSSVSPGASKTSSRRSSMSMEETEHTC
# [11] = target: T3, Corticotropin-releasing factor receptor 2/Corticotropin-releasing factor-binding protein (Homo sapiens, UniProt P24387+Q13324); test: activators of CRF receptor 2 with binding protein – uHTS hits, confirmation (AID 602473); format: functional; conditions: read-out: EC50_Mean
# T3 sequence (Q13324 whole entry): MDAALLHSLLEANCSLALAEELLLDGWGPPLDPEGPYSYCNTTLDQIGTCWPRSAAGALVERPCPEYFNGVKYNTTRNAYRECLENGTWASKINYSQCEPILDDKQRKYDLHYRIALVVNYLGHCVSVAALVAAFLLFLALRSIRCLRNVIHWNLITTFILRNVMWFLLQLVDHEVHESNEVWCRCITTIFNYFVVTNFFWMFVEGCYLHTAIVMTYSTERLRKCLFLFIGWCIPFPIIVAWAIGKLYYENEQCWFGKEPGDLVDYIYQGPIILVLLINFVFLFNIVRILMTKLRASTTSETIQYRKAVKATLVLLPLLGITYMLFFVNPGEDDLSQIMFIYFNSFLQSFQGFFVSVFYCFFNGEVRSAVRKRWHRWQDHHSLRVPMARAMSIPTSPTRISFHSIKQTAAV
# T3 sequence (P24387 whole entry): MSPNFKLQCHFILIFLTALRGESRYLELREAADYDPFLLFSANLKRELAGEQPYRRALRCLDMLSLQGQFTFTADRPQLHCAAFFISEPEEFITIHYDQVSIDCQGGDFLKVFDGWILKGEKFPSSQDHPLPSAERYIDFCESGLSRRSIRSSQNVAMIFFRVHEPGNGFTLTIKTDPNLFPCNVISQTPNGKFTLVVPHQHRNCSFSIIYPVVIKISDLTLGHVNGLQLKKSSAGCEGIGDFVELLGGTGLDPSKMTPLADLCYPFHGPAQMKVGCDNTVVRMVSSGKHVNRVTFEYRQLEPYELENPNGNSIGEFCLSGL
# Paired box protein Pax-8 = Paired box protein Pax-8 (Homo sapiens, UniProt Q06710); test: PAX8 transcriptional activity inhibition in RMG-I – RMG-I cells, luciferase, cherry-pick, dose response (AID 687027); format: functional, cell-based;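 also: luciferase reporter driven by Pax8 target thyroperoxidase promoter measured by SteadyGlo luminescence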
# Sequence of Paired box protein Pax-8 (Q06710 whole entry): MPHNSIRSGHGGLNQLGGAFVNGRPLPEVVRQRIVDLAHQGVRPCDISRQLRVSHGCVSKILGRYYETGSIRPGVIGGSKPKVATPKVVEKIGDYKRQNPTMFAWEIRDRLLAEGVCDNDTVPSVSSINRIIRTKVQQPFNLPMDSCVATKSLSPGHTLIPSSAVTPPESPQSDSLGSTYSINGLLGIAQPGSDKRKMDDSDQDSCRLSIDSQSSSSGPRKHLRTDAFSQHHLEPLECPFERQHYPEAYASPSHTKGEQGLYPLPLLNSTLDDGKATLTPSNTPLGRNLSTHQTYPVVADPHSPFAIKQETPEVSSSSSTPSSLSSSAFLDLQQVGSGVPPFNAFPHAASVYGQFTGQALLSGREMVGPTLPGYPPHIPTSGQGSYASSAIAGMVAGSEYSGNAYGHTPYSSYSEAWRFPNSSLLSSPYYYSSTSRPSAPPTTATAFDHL
# [12] = NIH3T3 cell viability loss – ATP luminescence, mouse fibroblasts, counter-screen, dose response (AID 2010); format: functional, cell-based;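 also: cells exposed to compound for about 90 hours before reading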
# [13] = target: T1, Short transient receptor potential channel 4; test: block of DAMGO-driven TRPC4 calcium entry – cell-based, HEK293 TRPC4/mu-opioid, Fluo-4 calcium, dose response (AID 434942); format: functional;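 also: potency of inhibitors blocking the TRPC4 calcium response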
# [14] = Trypanosoma cruzi growth suppression in host cells – NIH3T3 host cells, beta-gal luminescence, confirmation (AID 2044); format: functional, cell-based;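 also: intracellular parasites grown in NIH/3T3 mouse fibroblasts as host cells; luminescent beta-galactosidase reporter signal from transgenic T. cruzi replicating inside host cells; inhibitors lower the luminescence signal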
smiles,measurement,setting,value
Cc1ccc(C(NC(=O)N2CCOCC2)=C(Cl)Cl)cc1F,EC50,[1],6.69 µM (active)
same,EC50,[2],4.71 µM (active)
CCOc1ccc2ncc(C(=O)c3ccc(OC)cc3)c(N3CCN(CC)CC3)c2c1,EC50,[3],5.96 µM (active)
COC1C(O)C(n2ncc3c(SC)nc(SC)nc32)OC1C(O)CO (stereo not given),GI50,P388,98.2 µM (inactive)
same,GI50,SN12K1,> 37.2 µM (inactive)
same,GI50,P388/ADR,> 100 µM (inactive)
C[C@H](CO)N1C[C@H](C)[C@H](CN(C)S(=O)(=O)c2cccs2)Oc2ccc(NC(=O)Cc3ccccc3)cc2CC1=O,AC50,[4],< 0.26 µM (active)
same,AC50,[5],< 0.26 µM (active)
Cc1ccccc1S(=O)(=O)N1CC(=O)N2[C@H](C1)[C@@H](c1ccc(C#Cc3ccccc3)cc1)[C@@H]2CO,AC50,[6],3.52 µM (active)
same,AC50,[7],15.8 µM (active)
O=C(/C=C/c1ccc(Br)cc1)c1ccco1,EC50,[1],11.5 µM (active)
same,EC50,[2],10.9 µM (active)
CN(C)C(=O)c1cccc(-c2cccc(-c3nc(C(=O)NCc4ccccc4)cc4c3[C@@H](CCO)N([S@+]([O-])C(C)(C)C)C4)c2)c1,AC50,[6],1.17 µM (active)
same,AC50,[7],17.5 µM (active)
O=C(NC(=S)NCc1nc2ccccc2[nH]1)c1ccccc1F,EC50,H4,9.16 µM (active)
same,EC50,[8],25.6 µM (active)
same,EC50,[9],70.7 µM (active)
COc1cccc2cc(CC(=O)c3ccc(C)cc3C)c(=O)oc12,EC50,H4,11 µM (active)
same,EC50,[8],43.4 µM (active)
same,AC50,HeLa,83.9 µM (active)
same,EC50,[9],43.3 µM (active)
COc1ccc(C)cc1Nc1nc(N)c2cc(OC)c(OC)cc2n1,AC50,[10],14.2 µM (active)
Cc1ccc(S(=O)(=O)N(C)C[C@@H]2Oc3ccc(NC(=O)Cc4cn(C)c5ccccc45)cc3CC(=O)N([C@H](C)CO)C[C@@H]2C)cc1,AC50,[4],14.5 µM (active)
same,AC50,[5],1.09 µM (active)
O=C(NC1=NCCS1)C12CC3CC(C1)CC(C(=O)NC1=NCCS1)(C3)C2,EC50,H4,9.63 µM (active)
same,EC50,[8],13.6 µM (inconclusive)
same,EC50,[9],> 120 µM (not active)
COc1cccc(CNC(=O)CN2C(=O)CSc3ccc(S(=O)(=O)N4CCCCC4)cc32)c1,EC50,H4,> 120 µM (not active)
same,EC50,[8],> 120 µM (not active)
same,EC50,[9],> 120 µM (not active)
CCn1c(COc2ccccc2C)nc2ccccc21,EC50,[11],4.28 µM (active)
same,AC50,HeLa,81 µM (active)
O=P1(N(CCCl)CCCl)NCCCO1 (stereo not given) [CYCLOPHOSPHAMIDE ANHYDROUS],GI50,P388,229 µM (inactive)
same,GI50,SN12K1,> 245 µM (inactive)
same,GI50,P388/ADR,196 µM (inactive)
COc1ccc(C(CNC(=O)c2cccc(NS(=O)(=O)c3ccc(Br)cc3)c2)N(C)C)cc1 (stereo not given),EC50,[3],5.31 µM (active)
COc1cccc(/C=C/C(=O)OC(C)C(=O)Nc2c(C)n(C)n(-c3ccccc3)c2=O)c1 (stereo not given),EC50,H4,> 120 µM (not active)
same,EC50,[8],49.1 µM (active)
same,EC50,[9],10.5 µM (active)
Oc1nc2cc3c(cc2cc1CN(Cc1nnnn1C1CCCC1)C1CCCC1)OCCO3,EC50,H4,59.4 µM (active)
same,EC50,[8],> 120 µM (not active)
same,EC50,[9],> 120 µM (not active)
COCCN(C(=O)COC(=O)/C=C/c1ccccc1Cl)c1c(N)n(Cc2ccccc2)c(=O)[nH]c1=O,EC50,H4,> 120 µM (not active)
same,EC50,[8],9.52 µM (active)
same,EC50,[9],26.2 µM (active)
CCc1ccc(-c2nc(CN3CCC(C(=O)N4CCN(c5ccccn5)CC4)CC3)c(C)o2)cc1,EC50,[1],7.51 µM (active)
same,EC50,[2],7.28 µM (active)
COC(=O)[C@]12CCCCC=C1N(Cc1cccc3ccccc13)C(=O)[C@H](CC(=O)N1CCN(C(=O)c3ccco3)CC1)C2,AC50,Paired box protein Pax-8,1.59 µM (active)
O=C1NC(=O)C(CCO)(c2ccccc2)C(=O)N1,GI50,P388,> 100 µM (inactive)
same,GI50,SN12K1,> 100 µM (inactive)
CNCCOc1ccc(Cl)c(Cl)c1,EC50,[3],0.944 µM (active)
CC(NCc1cc(Br)ccc1OCC(=O)NCc1ccccc1)c1ccccc1 (stereo not given),EC50,[3],7.5 µM (active)
same,EC50,[12],> 60 µM (not active)
same,EC50,[13],1.06 µM (active)
same,EC50,[14],2.53 µM (active)
CSCCC(NS(=O)(=O)c1ccc2c(c1)c(=O)n(C)c(=O)n2C)C(=O)NC1CCN(Cc2ccccc2)CC1 (stereo not given),EC50,[3],3.76 µM (active)
Cc1ccc(C#CS(=O)(=O)C(F)(F)F)cc1,GI50,P388,90.6 µM (inactive)
same,GI50,SN12K1,> 100 µM (inactive)
same,GI50,P388/ADR,> 100 µM (inactive)
O=C(O)c1ccc(Nc2c3ccccc3nc3ccccc23)cc1,GI50,P388,3.92 µM (inactive)
same,GI50,SN12K1,60.5 µM (inactive)
same,GI50,P388/ADR,22.4 µM (inactive)
c1ccc2c(c1)NCc1cc3ccccc3nc1O2,GI50,P388,> 100 µM (inactive)
same,GI50,SN12K1,> 100 µM (inactive)
same,GI50,P388/ADR,74.1 µM (inactive)
CCOC(=O)c1c[nH]c2cc3c(cc2c1=O)CCS3(=O)=O.CCOC(=O)c1c[nH]c2ccc3c(c2c1=O)S(=O)(=O)CC3,GI50,P388,> 100 µM (inactive)
same,GI50,SN12K1,> 100 µM (inactive)
same,GI50,P388/ADR,> 100 µM (inactive)
C[C@H](CO)N1C[C@H](C)[C@H](CN(C)C(=O)[C@H](C)c2ccccc2)OCc2ccccc2-c2c(n(C)c3ccccc23)C1=O,AC50,[6],4.15 µM (active)
same,AC50,[7],34.4 µM (active)
